ChEMBL document CHEMBL1201862, “PubChem BioAssay data set” (2004)
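Following 48 hours of exposure in 96-well plates, responses at five concentrations were used to interpolate endpoints linearly. GI50 = concentration required for 50% inhibition of growth.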 The source made the active and inactive calls. No stated cut-off is given here; in the data, active = GI50 up to about 1.1 µM and inactive = higher.

What was measured:
Test in all cases: growth of human tumour cells (NCI), 48 h
[1] = tested on: SK-OV-3
[2] = tested on: MDA-MB-231
[3] = tested on: SK-MEL-5
[4] = tested on: SF-295
[5] = tested on: HCT-15
[6] = tested on: RPMI-8226
[7] = tested on: DU-145
[8] = tested on: IGROV-1
[9] = tested on: EKVX
[10] = tested on: OVCAR-3
[11] = tested on: OVCAR-5
[12] = tested on: T47D
[13] = tested on: K562
[14] = tested on: Hs-578T
[15] = tested on: OVCAR-8
[16] = tested on: NCI-H23
[17] = tested on: CCRF-CEM
[18] = tested on: SNB-75
[19] = tested on: SR
[20] = tested on: HCT-116
[21] = tested on: CAKI-1
[22] = tested on: HT-29
[23] = tested on: HOP-62
[24] = tested on: MCF7
[25] = tested on: NCI/ADR-RES
[26] = tested on: SK-MEL-2
[27] = tested on: ACHN
[28] = tested on: KM12
[29] = tested on: COLO 205
[30] = tested on: SK-MEL-28
[31] = tested on: OVCAR-4
[32] = tested on: BT-549
[33] = tested on: SN12C
[34] = tested on: PC-3
[35] = tested on: MDA-N
[36] = tested on: UACC-257
[37] = tested on: MDA-MB-435
[38] = tested on: LOX IMVI
[39] = tested on: TK-10
[40] = tested on: HL-60
[41] = tested on: SNB-19
[42] = tested on: SF-268
[43] = tested on: NCI-H460
[44] = tested on: A498
[45] = tested on: RXF 393
[46] = tested on: MOLT-4
[47] = tested on: UACC-62
[48] = tested on: NCI-H522
[49] = tested on: HOP-92
[50] = tested on: M14
[51] = tested on: 786-0
[52] = tested on: SW-620
[53] = tested on: SF-539
[54] = tested on: UO-31
[55] = tested on: NCI-H226
[56] = tested on: Malme-3M
[57] = tested on: U-251
[58] = tested on: A549

SMILES: O=C(O)CSCc1cccc2ccccc12
- GI50 [1]: > 100 µM (inactive)
- GI50 [2]: > 100 µM (inactive)
- GI50 [3]: > 100 µM (inactive)
- GI50 [4]: > 100 µM (inactive)
- GI50 [5]: > 100 µM
- GI50 [6]: > 100 µM (inactive)
- GI50 [7]: > 100 µM (inactive)
- GI50 [8]: > 100 µM (inactive)
- GI50 [9]: 19.4 µM (inactive)
- GI50 [10]: > 100 µM (inactive)
- GI50 [11]: > 100 µM (inactive)
- GI50 [12]: > 100 µM (inactive)
- GI50 [13]: > 100 µM (inactive)
- GI50 [14]: > 100 µM (inactive)
- GI50 [15]: > 100 µM (inactive)
- GI50 [16]: > 100 µM (inactive)
- GI50 [17]: > 100 µM (inactive)
- GI50 [18]: > 100 µM (inactive)
- GI50 [19]: > 100 µM (inactive)
- GI50 [20]: > 100 µM (inactive)
- GI50 [21]: > 100 µM (inactive)
- GI50 [22]: > 100 µM (inactive)
- GI50 [23]: > 100 µM (inactive)
- GI50 [24]: > 100 µM (inactive)
- GI50 [25]: > 100 µM (inactive)
- GI50 [26]: > 100 µM (inactive)
- GI50 [27]: > 100 µM (inactive)
- GI50 [28]: > 100 µM (inactive)
- GI50 [29]: > 100 µM (inactive)
- GI50 [30]: > 100 µM (inactive)
- GI50 [31]: > 100 µM (inactive)
- GI50 [32]: > 100 µM (inactive)
- GI50 [33]: > 100 µM (inactive)
- GI50 [34]: > 100 µM (inactive)
- GI50 [35]: > 100 µM (inactive)
- GI50 [36]: 62.1 µM (inactive)
- GI50 [37]: > 100 µM (inactive)
- GI50 [38]: > 100 µM (inactive)
- GI50 [39]: 48.8 µM (inactive)
- GI50 [40]: > 100 µM (inactive)
- GI50 [41]: > 100 µM (inactive)
- GI50 [42]: > 100 µM (inactive)
- GI50 [43]: > 100 µM (inactive)
- GI50 [44]: > 100 µM (inactive)
- GI50 [45]: > 100 µM (inactive)
- GI50 [46]: > 100 µM (inactive)
- GI50 [47]: > 100 µM (inactive)
- GI50 [48]: > 100 µM (inactive)
- GI50 [49]: > 100 µM (inactive)
- GI50 [50]: > 100 µM (inactive)
- GI50 [51]: > 100 µM (inactive)
- GI50 [52]: > 100 µM (inactive)
- GI50 [53]: > 100 µM (inactive)
- GI50 [54]: > 100 µM (inactive)
- GI50 [55]: > 100 µM (inactive)
- GI50 [56]: > 100 µM (inactive)
- GI50 [57]: > 100 µM (inactive)
- GI50 [58]: > 100 µM (inactive)

SMILES: CCC12CC(c3ccccc3)C(C(=O)N1)C(=O)N2 (stereo unspecified)
- GI50 [1]: > 100 µM (inactive)
- GI50 [2]: > 100 µM (inactive)
- GI50 [3]: > 100 µM (inactive)
- GI50 [4]: > 100 µM (inactive)
- GI50 [5]: > 100 µM
- GI50 [6]: > 100 µM (inactive)
- GI50 [7]: > 100 µM (inactive)
- GI50 [8]: > 100 µM (inactive)
- GI50 [9]: > 100 µM (inactive)
- GI50 [10]: > 100 µM (inactive)
- GI50 [11]: > 100 µM (inactive)
- GI50 [12]: > 100 µM (inactive)
- GI50 [13]: > 100 µM (inactive)
- GI50 [14]: > 100 µM (inactive)
- GI50 [15]: > 100 µM (inactive)
- GI50 [16]: > 100 µM (inactive)
- GI50 [17]: > 100 µM (inactive)
- GI50 [18]: 65.3 µM (inactive)
- GI50 [19]: > 100 µM (inactive)
- GI50 [20]: > 100 µM (inactive)
- GI50 [21]: > 100 µM (inactive)
- GI50 [22]: > 100 µM (inactive)
- GI50 [23]: > 100 µM (inactive)
- GI50 [24]: > 100 µM (inactive)
- GI50 [25]: > 100 µM (inactive)
- GI50 [26]: > 100 µM (inactive)
- GI50 [27]: > 100 µM (inactive)
- GI50 [28]: > 100 µM (inactive)
- GI50 [29]: > 100 µM (inactive)
- GI50 [30]: > 100 µM (inactive)
- GI50 [31]: > 100 µM (inactive)
- GI50 [32]: > 100 µM (inactive)
- GI50 [33]: > 100 µM (inactive)
- GI50 [34]: > 100 µM (inactive)
- GI50 [35]: > 100 µM (inactive)
- GI50 [36]: > 100 µM (inactive)
- GI50 [37]: > 100 µM (inactive)
- GI50 [40]: > 100 µM (inactive)
- GI50 [41]: > 100 µM (inactive)
- GI50 [42]: > 100 µM (inactive)
- GI50 [43]: > 100 µM (inactive)
- GI50 [44]: > 100 µM (inactive)
- GI50 [45]: > 100 µM (inactive)
- GI50 [46]: > 100 µM (inactive)
- GI50 [47]: > 100 µM (inactive)
- GI50 [48]: > 100 µM (inactive)
- GI50 [49]: > 100 µM (inactive)
- GI50 [50]: > 100 µM (inactive)
- GI50 [51]: > 100 µM (inactive)
- GI50 [52]: > 100 µM (inactive)
- GI50 [53]: > 100 µM (inactive)
- GI50 [54]: > 100 µM (inactive)
- GI50 [55]: > 100 µM (inactive)
- GI50 [56]: > 100 µM (inactive)
- GI50 [57]: > 100 µM (inactive)
- GI50 [58]: > 100 µM (inactive)

SMILES: Fc1cc(-c2cc(-c3ccccc3)no2)c(Cl)cc1Cl
- GI50 [1]: > 32.5 µM (inactive)
- GI50 [2]: 14.1 µM (inactive)
- GI50 [3]: 16.4 µM (inactive)
- GI50 [4]: 22.5 µM (inactive)
- GI50 [5]: 36 µM
- GI50 [6]: 6.93 µM (inactive)
- GI50 [7]: > 32.3 µM (inactive)
- GI50 [8]: 12.7 µM (inactive)
- GI50 [9]: 11.4 µM (inactive)
- GI50 [10]: 21.6 µM (inactive)
- GI50 [11]: 1.29 µM (inactive)
- GI50 [12]: 14 µM (inactive)
- GI50 [13]: 29.4 µM (inactive)
- GI50 [14]: > 34.8 µM (inactive)
- GI50 [15]: > 26.8 µM (inactive)
- GI50 [16]: 14 µM (inactive)
- GI50 [17]: 10.7 µM (inactive)
- GI50 [18]: > 31.6 µM (inactive)
- GI50 [19]: 13.9 µM (inactive)
- GI50 [20]: 13.8 µM (inactive)
- GI50 [21]: 34.5 µM (inactive)
- GI50 [22]: 15.8 µM (inactive)
- GI50 [23]: 22.7 µM (inactive)
- GI50 [24]: 4.25 µM (inactive)
- GI50 [25]: 54.8 µM (inactive)
- GI50 [26]: 23.6 µM (inactive)
- GI50 [27]: > 35.2 µM (inactive)
- GI50 [28]: 16.2 µM (inactive)
- GI50 [29]: 11.3 µM (inactive)
- GI50 [30]: > 29.8 µM (inactive)
- GI50 [31]: 22.9 µM (inactive)
- GI50 [32]: 18.5 µM (inactive)
- GI50 [33]: > 32.4 µM (inactive)
- GI50 [34]: 13.7 µM (inactive)
- GI50 [35]: 16.1 µM (inactive)
- GI50 [36]: > 56.8 µM (inactive)
- GI50 [37]: 11.4 µM (inactive)
- GI50 [38]: 13.2 µM (inactive)
- GI50 [39]: > 34.7 µM (inactive)
- GI50 [40]: 19.7 µM (inactive)
- GI50 [41]: > 40.6 µM (inactive)
- GI50 [42]: 19.4 µM (inactive)
- GI50 [43]: 16.7 µM (inactive)
- GI50 [44]: > 33 µM (inactive)
- GI50 [45]: 7.11 µM (inactive)
- GI50 [46]: 12.4 µM (inactive)
- GI50 [47]: 43.2 µM (inactive)
- GI50 [48]: 14.9 µM (inactive)
- GI50 [49]: 7.69 µM (inactive)
- GI50 [50]: 23.1 µM (inactive)
- GI50 [51]: 15.5 µM (inactive)
- GI50 [52]: 20.9 µM (inactive)
- GI50 [53]: > 12.4 µM (inactive)
- GI50 [54]: > 38.5 µM (inactive)
- GI50 [56]: 19.2 µM (inactive)
- GI50 [57]: 10.3 µM (inactive)
- GI50 [58]: 10.3 µM (inactive)
